Results published in patent US20260258025A1, “INHIBITORS OF TDP-43 AND TAU AGGREGATION” (Aquinnah Pharmaceuticals, inc., priority 2023, published 2026).
“Also recorded” adds a separate entry of the source.

Tests used:
[1] = tested on: TDP-43 splicing function; test: qRT-PCR of TDP-43 sentinel transcripts (STMN2, ELAVL3, PFKP) in MG-132 challenged human motor neurons; type: cell-based
Experimental: Cell culture and differentiation of iPS Cells into motor neurons. Pluripotent stem cells were grown with mTeSR Plus medium on tissue culture dishes coated with Matrigel, and maintained in 5% CO2 incubators at 37° C. Stem cells were passaged as small aggregates of cells after 1 mM EDTA treatment. […] was added to the cultures for 16-24 h after dissociation to prevent cell death. The iP11NA iPS cell line was acquired from ALSTEM. This cell line was generated from pre-made footprint-free human iPS cells with DOX inducible Ngn2 that has been stably integrated into the human AAVS1 “Safe Harbor” site, and provides a convenient means to differentiate human iPS cells into neurons rapidly and efficiently. Motor neuron differentiation was achieved using a modified 5-day strategy.
This approach relies on neural induction through small molecule inhibition of SMAD signaling, accelerated neural differentiation through forced Ngn2 expression, and motor neuron patterning through the activation of retinoic acid and Sonic Hedgehog signaling pathways. In brief, pluripotent stem cells were dissociated to single cells using accutase and plated at a density of 80,000 cells per cm^2 on Matrigel-coated culture plates with mTeSR Plus medium supplemented with ROCK inhibitor (10 μM Y-27632, ATCC). When cells reached 50% confluency, medium was changed to differentiation medium BrainPhys medium supplemented with N2-A, SM1, […]. This time point was defined as day 0 (d0) of motor neuron differentiation. Treatment with small molecules was carried out as follows: 2 μg/mL Doxycyline, 10 μM SB431542, 100 nM LDN-193189, […] and 1 μM Smoothend agonist and 10 uM Edu. The full list of materials and their descriptions is included below in Table 5.
Total RNA was isolated from d14 motor neurons for qRT-PCR assays using TaqMan™ Fast Advanced Cells-to-CT™ Kit according to manufacturer's instructions. 7500 neurons per well of 96-well culture were routinely used for processing. qRT-PCR was then performed using multiplex assays from IDT using PrimeTime™ Gene Expression Master Mix (IDT) on a QuantStudio6Pro system. Quantitative levels for all genes assayed were normalized using GAPDH expression. […] Primers and probes used in this study are in Table 5.
To this end, we first examined whether proteasome inhibition, which triggers TDP-43 nuclear depletion, also leads to splicing defects associated with TDP-43 loss-of function. For comparison, we also treated human motor neurons with puromycin, which recruits TDP-43 to stress granules in the cytoplasm. We chose to analyze several transcripts that have relevant connections to ALS biology including STMN26,12, PFKP19, and ELAVL320,21. We used quantitative reverse transcription-polymerase chain reaction (qRT-PCR) to validate that in MG-132-treated motor neurons these transcripts were altered like in ALS patients.
Using this method, we next obtained RNA from independent motor neuron biological replicates after proteasome inhibition and Compound 183 treatment to determined by qRT-PCR the relative abundance of these transcripts. […] A dose-responsive effect was further tested for Compound 183 using qRT-PCR in this model. […] Collectively, the data support the notion that Compound 183 promotes TDP-43 nuclear function under proteotoxic stress.

[2] = tested on: TDP-43 aggregation; test: TDP-43 aggregation assay in SY5Y TDP-43WT cells (high content imaging); type: cell-based; conditions: Homo sapiens, tetracycline induction 24 hrs, 1 hour compound pre-treatment, sodium arsenite 23 hrs, 8-point dose curve, percentage of cells with TDP-43 aggregates, read-out: IC50, Inhibition of TDP-43 Aggregation
In short: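 Tetracycline-inducible eGFP-tagged wild-type human TDP-43 in SH-SY5Y cells, induced 24 h ([…]), compound pre-treated 1 h, then sodium arsenite […] for 23 h. Fixed cells imaged; percentage of DAPI-counted cells with aggregates gives IC50 from 8-point curves.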

[3] = Compound 183 500 nM with MG-132 1 μM, relative to MG-132 control
[4] = by 500 nM, MG-132 1 μM challenged motor neurons

Cc1cc(-c2ccc(C3CCN(C(C)C)CC3)cc2)sc1C(=O)N1CC[C@H](N)C1 [Compound 183, (S)-(3-aminopyrrolidin-1-yl)(5-(4-(1-isopropylpiperidin-4-yl)phenyl)-3-methylthiophen-2-yl)methanone]
cryptic splicing events of STMN2, ELAVL3 and PFKP (qRT-PCR) [1, 3]: nearly complete inhibition for all three cryptic splicing events | splicing of the normal transcripts, TDP-43 splicing function (qRT-PCR) [1, 3]: increased splicing of the normal transcripts; also recorded: restoring splicing function of TDP-43 | restoration of normal STMN2 and ELAVL3 levels (qRT-PCR, dose response) ([1]; MG-132 1 μM challenged motor neurons): modest in its ability to restore normal STMN2 and ELAVL3 levels | maintenance of TDP-43 splicing function, dose response (qRT-PCR) ([1]; MG-132 1 μM challenged motor neurons, effective concentration range for most transcripts): restoring TDP-43 splicing function in dose dependent manner | restoration of normal splicing of PFKP (qRT-PCR, dose response) [1, 4]: fully restored normal splicing of PFKP | suppression of cryptic splicing, all transcripts tested (qRT-PCR, dose response) [1, 4]: strong suppression of cryptic splicing | IC50 [2]: < 500 nM
